Test results published in patent US12350252B2, “Water-soluble cannabinoid formulations and methods of their making” (SOLUSCIENCE, LLC, priority 2019, dated 2025).

Assay: Accelerated stability study of 2% CBD colloidal dispersion (cannabinoid profile, appearance, pH, microbial growth)
Assay type: physicochemical
Protocol: The solid dispersion included 20% CBD, 75% of Poloxamer 407 and 5% ascorbic acid was dissolved in distilled water to produce the homogenic, stable colloidal dispersion of cannabidiol at 2% (20 mg/mL) by weight of the formulation.

[1] = Day # 0, content in colloidal dispersion of cannabidiol at 2% (20 mg/mL)
[2] = Day # 90, stored at 100° F. (38° C.), content in colloidal dispersion of cannabidiol at 2%

Structure (SMILES) | Cannabinoid profile Result [1] [mg/g] | Cannabinoid profile Result (%) [1] [%] | Cannabinoid profile Result [2] [mg/g] | Cannabinoid profile Result (%) [2] [%]
C=C(C)[C@@H]1CCC(C)=C[C@H]1c1c(O)cc(CCCCC)cc1O [Cannabidiol (CBD), Cannabidiol] | 20.2 | 2.02 | 21.9 | 2.19
CCCCCc1cc(O)c(C/C=C(\C)CCC=C(C)C)c(O)c1 [Cannabigerol (CBG), Cannabigerol] | 0.3 | 0.03 | – | –
CCCCCc1cc(O)c2c(c1)OC(C)(C)c1ccc(C)cc1-2 [Cannabinol (CBN), Cannabinol] | 0.3 | 0.03 | – | –
